Legend:
Experiment in all cases: inactivation of microorganisms in water, number of cells in supernatant
Type in all cases: cell-based
[1] = system: Bacillus cereus; settings: 10 ppm; pH 8; initial 9.5 × 10^4
Protocol: (§1) Each test microbe was inoculated to nutrient broth and cultured with shaking at the optimum temperature of the test microbe until the late logarithmic phase. From the microbe culture, the microbe was collected, and the collected microbe was washed with 1.5 mL of physiological saline 2 to 3 times (centrifugation at 13000 rpm for 1 minute) and suspended in 1.5 mL of physiological saline. From the suspension, a 1 mL aliquot was recovered, and this was added to 9 mL of sterile water, followed by sufficient stirring of the resulting suspension (this was used as 10^−1 dilution). From the 10^−1 dilution, 10^−2 to 10^−8 dilutions were sequentially prepared. Each dilution was smeared on a film medium (Sanita-kun; for E. coli and coliform bacteria, for Staphylococcus aureus, for Salmonella, for aerobic bacteria or for fungi: Chisso Corporation) in an amount of 1 mL, followed by culturing at the optimum temperature of the test microbe for 24 to 72 hours and measurement of the number of cells on the film medium.
(§2) To a sterilized beaker, 500 mL of sterilized water was placed, and 0.20 mL of microbe culture of 10^6 to 10^10 cells/mL was inoculated thereto, to attain an initial cell number of 10^3 to 10^7 cells/mL. Unless otherwise specified, the pH was 6 to 8. After stirring the suspension gently for 5 minutes, PGα21Ca (Nippon Poly-Glu Co., Ltd.) and/or a microbiostatic agent or microbicide was/were added thereto such that a predetermined final concentration(s) was/were attained. After gentle stirring at room temperature for 10 to 15 minutes, the suspension was left to stand for a predetermined length of time. The supernatant was collected and diluted appropriately in an antimicrobial agent-inactivating medium (BHI medium or the like), and 1 mL each of the resulting diluent was smeared on a film medium. Culturing was carried out at the optimum temperature of each test microbe for 24 to 72 hours and the number of cells (cells/mL) on the film medium was measured.

[2] = system: Listeria monocytogenes; settings: 10 ppm; pH 8; initial 2.0 × 10^4
Protocol: as §1, §2

[3] = system: Escherichia coli; settings: 10 ppm; pH 8; initial 5.8 × 10^4
Protocol: as §1, §2

[4] = system: Salmonella choleraesuis; settings: 10 ppm; pH 8; initial 4.7 × 10^4
Protocol: as §1, §2

[5] = system: Staphylococcus aureus; settings: 10 ppm; pH 8; initial 4.3 × 10^4
Protocol: as §1, §2

[6] = system: Bacillus subtilis; settings: 10 ppm; pH 8; initial 6.0 × 10^4
Protocol: as §1, §2

[7] = system: Klebsiella pneumoniae; settings: 10 ppm; pH 8; initial 1.3 × 10^5
Protocol: as §1, §2

[8] = system: Pseudomonas aeruginosa; settings: 10 ppm; pH 8; initial 2.0 × 10^5
Protocol: as §1, §2

protamine sulfate
number of cells 2 hours later [1]: 300 cells/mL
number of cells 2 hours later [2]: <10 cells/mL
number of cells 2 hours later [3]: <10 cells/mL
number of cells 2 hours later [4]: <10 cells/mL
number of cells 2 hours later [5]: <10 cells/mL
number of cells 2 hours later [6]: 10 cells/mL
number of cells 2 hours later [7]: 10 cells/mL
number of cells 2 hours later [8]: <10 cells/mL
